Publication PMC10285648, “iTAG an optimized IMiD-induced degron for targeted protein degradation in human and murine cells” (iScience, 2023)

How the values were obtained:
DCD23-EGFP-KRAS^[G12V] = assay: Western blotting for KRAS G12V and p-MEK1(T292) in HMEC; assay type: cell-based, human; settings: 10uM, 48h
Method: (§1) Figure 2 Degradation of cytoplasmic and nuclear targets using iTAG (A) HMEC cells expressing N-terminally tagged DCD23-EGFP-KRAS^[G12V], DCD23-EGFP-EZH2, DCD23-EGFP-cMYC or their corresponding P2A control were induced with doxycycline for 24h then treated with either DMSO or the different indicated drugs at a concentration of 10uM for 4h. Median EGFP intensity was measured in each condition using flow cytometry and normalized values were represent in the Log2 Fold change relative to the DMSO control. (B) HMEC cells expressing Dox inducible C-terminally tagged KRAS^[G12V]-EGFP-DCD23, EZH2-EGFP-DCD23 or their corresponding P2A control were induced with doxycycline for 24h then treated with either DMSO or the different indicated drugs at a concentration of 10uM for 4h. Median EGFP intensity was measured in each condition using flow cytometry and normalized values were represent in the Log2 Fold Change relative to the DMSO control. […]
We then analyzed the functional consequences of KRAS^[G12V]-induced degradation. […] Subsequently, we analyzed the functional consequences of KRAS^[G12V]-induced degradation. […]
Cells were lysed with SDS lysis buffer (2% SDS, 10% Glycerol, 50mM Tris pH 6.8) and boiled at 95°C for 30min. Protein concentration was measured using Pierce BCA Protein Assay Kit (ThermoFischer) following manufacturer’s recommendations. […]

[1] = tested on: N and C-terminally tagged KRAS^[G12V] and EZH2 (DCD23); assay: Flow cytometry of EGFP signal, DCD23-tagged KRAS G12V and EZH2 in HMEC; assay type: cell-based, human; settings: 10uM, 4h
Description: We tagged the proteins with DCD23 constructs, fused either to their N-terminus or C-terminus (Figures 2A and 2B). We stably transduced HMEC cells with these constructs and assessed their degradation. Cellular treatment with all degraders led to a decrease in the EGFP signal of the N and C-terminally tagged KRAS^[G12V] and EZH2 (Figures 2A and 2B).
as §1, with “(B) HMEC cells expressing Dox inducible C-terminally tagged KRAS^[G12V]-EGFP-DCD23, EZH2-EGFP-DCD23 or their corresponding P2A control were induced with doxycycline for 24h then treated with either DMSO or the different indicated drugs at a concentration of 10uM for 4h.” left out
Cells stably transduced with the iTAG tagged constructs were treated with 1 μg/mL of doxycycline for 24h to induce constructs expression. […] EGFP signal was measured using BD LSR II flow cytometer (BD Biosciences). […]

[2] = tested on: N-terminally tagged cMYC, RBM39, BRD4 (Flag-HA-DCD23 or Flag-HA-FKBP12^[F36V]); assay: Western blotting, iTAG versus dTAG fused proteins in SUM159; assay type: cell-based, human; settings: SUM159, dTAG-13 on dTAG, CC220 on iTAG
Method: The fusion constructs were stably expressed in SUM159 cells and loss of protein was determined by western blotting.
The protein lysates were probed for HA using western blotting. […] The protein lysates were probed for HA using western blotting. […] Median EGFP intensity was measured in each condition using flow cytometry. (3 independent experiments, represented as mean ± SD).
The dTAG system has also been adapted to direct targets to the E3 CRL2^VHL using the PROTAC dTAG^V-1^16. […] We evaluated the degradation N-terminally tagged cMYC and RBM39 dTAG^V-1, we included BRD4 as a control as it was reported to be a well degraded target in the initial dTAG optimization (Figure 3C).[15]
For the pHAGE-PGK constructs: DCD23, SuperDegron and FKBP12^F36V were separately cloned into a pHAGE-PGK DEST backbone. cDNA encoding the indicated protein was then cloned from pENTR221 into the pHAGE-PGK-DCD23, pHAGE-PGK-SuperDegron or pHAGE-PGK-FKBPF36V DEST vector using Gateway cloning. SUM159 cells were transduced with the indicated lentivirus and selected with puromycin.
Cells were lysed with SDS lysis buffer (2% SDS, 10% Glycerol, 50mM Tris pH 6.8) and boiled at 95°C for 30min. Protein concentration was measured using Pierce BCA Protein Assay Kit (ThermoFischer) following manufacturer’s recommendations. Samples were ran in NuPAGETM 10% Bis-Tris Midi electrophoresis gels (Invitrogen) using NuPAGETM MES SDS running buffer (ThermoFischer Scientific). Proteins were subsequently transferred to an Immobilon-P polyvinylidene Difluoride (PVDF) membrane (Merck Millipore) using the wet-transfer method (Bio-Rad) in a transfer buffer consisting of 20% (v/v) methanol and 10% protein electrophoresis buffer (24.77 mM Tris and 0.192 M glycine).
For western blotting membranes were blocked in a solution of 5% (w/v) bovine serum albumin (BSA; Sigma-Aldrich) dissolved in TBS-0.1% Tween 20 (Sigma-Aldrich) then incubated at 4°C overnight with the primary antibodies diluted in 5% (w/v) BSA/TBS-T. The membranes where then washed and incubated with anti-mouse and/or anti-rabbit secondary antibodies (LI-COR Biosciences) for 2h at RT diluted in 5% (w/v) BSA/TBS-T then washed and imaged using the LI-COR Odyssey (LI-COR Biosciences). Images were analyzed using Image Studio Lite software (LI-COR Biosciences).

[3] = Plasma CC220 level in tumor-bearing mice; assay type: in vivo; settings: mouse, 30 mg/kg oral, 24h post administration

residual plasma level [3]: nanomolar range
SMILES: O=C1CC[C@H](N2Cc3c(OCc4ccc(CN5CCOCC5)cc4)cccc3C2=O)C(=O)N1 [CC220, Iberdomide]
MEK1 (T292) phosphorylation after degradation of N-terminally tagged KRAS G12V (DCD23-EGFP-KRAS^[G12V]): concomitant decrease in MEK1 (T292) phosphorylation
change of EGFP signal [1]: most active degrader
concentrations at which targets are degraded [2]: 0.01 to 10 µM
time of onset of degradation of cMYC and RBM39 ([2]; 1, 2 or 4h): ≤ 1 h
